{"source": "the supplement of paper PMC10307832", "experiment_in_all_cases": "relative viability (nuclei count vs DMSO), 5 days (fraction); higher = more cells survive", "key": {"201T": {"system": "201T", "in_short": "(§1)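 Values are medians from duplicate plates. Each reflects relative viability, defined as the nuclei count of treated wells over that of vehicle wells. Lung cancer cell lines in 1536-well plates were pin-tool dosed one day after seeding with one drug alone or with a fixed anchor-drug dose plus five library-drug doses (not always all listed) in √10 steps, then fixed, stained and imaged at 4× after 5 days.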"}, "COR-L 105": {"system": "COR-L 105", "in_short": "as §1"}, "EPLC-272H": {"system": "EPLC-272H", "in_short": "as §1"}, "H3255": {"system": "H3255", "in_short": "as §1"}, "HCC-78": {"system": "HCC-78", "in_short": "as §1"}, "HCC-827": {"system": "HCC-827", "in_short": "as §1"}, "LC-2-ad": {"system": "LC-2-ad", "in_short": "as §1"}, "LCLC-97TM1": {"system": "LCLC-97TM1", "in_short": "as §1"}, "NCI-H1666": {"system": "NCI-H1666", "in_short": "as §1"}, "NCI-H1915": {"system": "NCI-H1915", "in_short": "as §1"}, "NCI-H2087": {"system": "NCI-H2087", "in_short": "as §1"}, "NCI-H2126": {"system": "NCI-H2126", "in_short": "as §1"}, "NCI-H2347": {"system": "NCI-H2347", "in_short": "as §1"}, "NCI-H23": {"system": "NCI-H23", "in_short": "as §1"}, "NCI-H2405": {"system": "NCI-H2405", "in_short": "as §1"}, "NCI-H322M": {"system": "NCI-H322M", "in_short": "as §1"}, "NCI-H520": {"system": "NCI-H520", "in_short": "as §1"}, "NCI-H647": {"system": "NCI-H647", "in_short": "as §1"}, "NCI-H650": {"system": "NCI-H650", "in_short": "as §1"}, "NCI-H661": {"system": "NCI-H661", "in_short": "as §1"}, "PC-14": {"system": "PC-14", "in_short": "as §1"}, "RERF-LC-KJ": {"system": "RERF-LC-KJ", "in_short": "as §1"}}, "data": [{"smiles": "Oc1nc(-c2ccc(C(F)(F)F)cc2)nc2c1CSCC2", "note": "[XAV939] + C[C@]1(O)C[C@@H](c2nc(-c3ccc4ccc(-c5ccccc5)nc4c3)c3c(N)nccn32)C1 [Linsitinib] (partner 1 µM)", "values": [{"measurement": "relative viability", "setting": "201T; first compound 0.08 µM", "result": 0.937}, {"measurement": "relative viability", "setting": "201T; first compound 0.253 µM", "result": 0.8}, {"measurement": "relative viability", "setting": "201T; first compound 0.8 µM", "result": 0.857}, {"measurement": "relative viability", "setting": "201T; first compound 2.53 µM", "result": 0.873}, {"measurement": "relative viability", "setting": "COR-L 105; first compound 0.08 µM", "result": 1}, {"measurement": "relative viability", "setting": "COR-L 105; first compound 0.253 µM", "result": 0.98}, {"measurement": "relative viability", "setting": "COR-L 105; first compound 0.8 µM", "result": 0.868}, {"measurement": "relative viability", "setting": "COR-L 105; first compound 2.53 µM", "result": 0.561}, {"measurement": "relative viability", "setting": "EPLC-272H; first compound 0.08 µM", "result": 1.3}, {"measurement": "relative viability", "setting": "EPLC-272H; first compound 0.253 µM", "result": 1.08}, {"measurement": "relative viability", "setting": "EPLC-272H; first compound 0.8 µM", "result": 1.18}, {"measurement": "relative viability", "setting": "EPLC-272H; first compound 2.53 µM", "result": 1.09}, {"measurement": "relative viability", "setting": "H3255; first compound 0.08 µM", "result": 0.981}, {"measurement": "relative viability", "setting": "H3255; first compound 0.253 µM", "result": 0.843}, {"measurement": "relative viability", "setting": "H3255; first compound 0.8 µM", "result": 1.05}, {"measurement": "relative viability", "setting": "H3255; first compound 2.53 µM", "result": 0.784}, {"measurement": "relative viability", "setting": "HCC-78; first compound 0.08 µM", "result": 0.59}, {"measurement": "relative viability", "setting": "HCC-78; first compound 0.253 µM", "result": 0.448}, {"measurement": "relative viability", "setting": "HCC-78; first compound 0.8 µM", "result": 0.616}, {"measurement": "relative viability", "setting": "HCC-78; first compound 2.53 µM", "result": 0.443}, {"measurement": "relative viability", "setting": "HCC-827; first compound 0.08 µM", "result": 0.995}, {"measurement": "relative viability", "setting": "HCC-827; first compound 0.253 µM", "result": 0.91}, {"measurement": "relative viability", "setting": "HCC-827; first compound 0.8 µM", "result": 0.952}, {"measurement": "relative viability", "setting": "HCC-827; first compound 2.53 µM", "result": 0.942}, {"measurement": "relative viability", "setting": "LC-2-ad; first compound 0.08 µM", "result": 0.873}, {"measurement": "relative viability", "setting": "LC-2-ad; first compound 0.253 µM", "result": 0.797}, {"measurement": "relative viability", "setting": "LC-2-ad; first compound 0.8 µM", "result": 0.819}, {"measurement": "relative viability", "setting": "LC-2-ad; first compound 2.53 µM", "result": 0.73}, {"measurement": "relative viability", "setting": "LCLC-97TM1; first compound 0.08 µM", "result": 0.192}, {"measurement": "relative viability", "setting": "LCLC-97TM1; first compound 0.253 µM", "result": 0.19}, {"measurement": "relative viability", "setting": "LCLC-97TM1; first compound 0.8 µM", "result": 0.206}, {"measurement": "relative viability", "setting": "LCLC-97TM1; first compound 2.53 µM", "result": 0.167}, {"measurement": "relative viability", "setting": "NCI-H1666; first compound 0.08 µM", "result": 0.816}, {"measurement": "relative viability", "setting": "NCI-H1666; first compound 0.253 µM", "result": 0.598}, {"measurement": "relative viability", "setting": "NCI-H1666; first compound 0.8 µM", "result": 0.712}, {"measurement": "relative viability", "setting": "NCI-H1666; first compound 2.53 µM", "result": 0.568}, {"measurement": "relative viability", "setting": "NCI-H1915; first compound 0.08 µM", "result": 1.13}, {"measurement": "relative viability", "setting": "NCI-H1915; first compound 0.253 µM", "result": 1.11}, {"measurement": "relative viability", "setting": "NCI-H1915; first compound 0.8 µM", "result": 1.04}, {"measurement": "relative viability", "setting": "NCI-H1915; first compound 2.53 µM", "result": 1.11}, {"measurement": "relative viability", "setting": "NCI-H2087; first compound 0.08 µM", "result": 1.14}, {"measurement": "relative viability", "setting": "NCI-H2087; first compound 0.253 µM", "result": 0.936}, {"measurement": "relative viability", "setting": "NCI-H2087; first compound 0.8 µM", "result": 0.939}, {"measurement": "relative viability", "setting": "NCI-H2087; first compound 2.53 µM", "result": 0.672}, {"measurement": "relative viability", "setting": "NCI-H2126; first compound 0.08 µM", "result": 0.727}, {"measurement": "relative viability", "setting": "NCI-H2126; first compound 0.253 µM", "result": 0.61}, {"measurement": "relative viability", "setting": "NCI-H2126; first compound 0.8 µM", "result": 0.672}, {"measurement": "relative viability", "setting": "NCI-H2126; first compound 2.53 µM", "result": 0.642}, {"measurement": "relative viability", "setting": "NCI-H2347; first compound 0.08 µM", "result": 1.08}, {"measurement": "relative viability", "setting": "NCI-H2347; first compound 0.253 µM", "result": 0.997}, {"measurement": "relative viability", "setting": "NCI-H2347; first compound 0.8 µM", "result": 0.931}, {"measurement": "relative viability", "setting": "NCI-H2347; first compound 2.53 µM", "result": 1}, {"measurement": "relative viability", "setting": "NCI-H23; first compound 0.08 µM", "result": 0.612}, {"measurement": "relative viability", "setting": "NCI-H23; first compound 0.253 µM", "result": 0.559}, {"measurement": "relative viability", "setting": "NCI-H23; first compound 0.8 µM", "result": 0.647}, {"measurement": "relative viability", "setting": "NCI-H23; first compound 2.53 µM", "result": 0.433}, {"measurement": "relative viability", "setting": "NCI-H2405; first compound 0.08 µM", "result": 1.01}, {"measurement": "relative viability", "setting": "NCI-H2405; first compound 0.253 µM", "result": 0.863}, {"measurement": "relative viability", "setting": "NCI-H2405; first compound 0.8 µM", "result": 0.96}, {"measurement": "relative viability", "setting": "NCI-H2405; first compound 2.53 µM", "result": 0.801}, {"measurement": "relative viability", "setting": "NCI-H322M; first compound 0.08 µM", "result": 0.966}, {"measurement": "relative viability", "setting": "NCI-H322M; first compound 0.253 µM", "result": 0.872}, {"measurement": "relative viability", "setting": "NCI-H322M; first compound 0.8 µM", "result": 0.909}, {"measurement": "relative viability", "setting": "NCI-H322M; first compound 2.53 µM", "result": 0.618}, {"measurement": "relative viability", "setting": "NCI-H520; first compound 0.08 µM", "result": 0.983}, {"measurement": "relative viability", "setting": "NCI-H520; first compound 0.253 µM", "result": 0.974}, {"measurement": "relative viability", "setting": "NCI-H520; first compound 0.8 µM", "result": 0.833}, {"measurement": "relative viability", "setting": "NCI-H520; first compound 2.53 µM", "result": 0.775}, {"measurement": "relative viability", "setting": "NCI-H647; first compound 0.08 µM", "result": 1.13}, {"measurement": "relative viability", "setting": "NCI-H647; first compound 0.253 µM", "result": 0.864}, {"measurement": "relative viability", "setting": "NCI-H647; first compound 0.8 µM", "result": 1.06}, {"measurement": "relative viability", "setting": "NCI-H647; first compound 2.53 µM", "result": 1.02}, {"measurement": "relative viability", "setting": "NCI-H650; first compound 0.08 µM", "result": 1.13}, {"measurement": "relative viability", "setting": "NCI-H650; first compound 0.253 µM", "result": 1.07}, {"measurement": "relative viability", "setting": "NCI-H650; first compound 0.8 µM", "result": 0.911}, {"measurement": "relative viability", "setting": "NCI-H650; first compound 2.53 µM", "result": 0.857}, {"measurement": "relative viability", "setting": "NCI-H661; first compound 0.08 µM", "result": 0.653}, {"measurement": "relative viability", "setting": "NCI-H661; first compound 0.253 µM", "result": 0.568}, {"measurement": "relative viability", "setting": "NCI-H661; first compound 0.8 µM", "result": 0.649}, {"measurement": "relative viability", "setting": "NCI-H661; first compound 2.53 µM", "result": 0.35}, {"measurement": "relative viability", "setting": "PC-14; first compound 0.08 µM", "result": 0.954}, {"measurement": "relative viability", "setting": "PC-14; first compound 0.253 µM", "result": 0.831}, {"measurement": "relative viability", "setting": "PC-14; first compound 0.8 µM", "result": 1.04}, {"measurement": "relative viability", "setting": "PC-14; first compound 2.53 µM", "result": 0.844}, {"measurement": "relative viability", "setting": "RERF-LC-KJ; first compound 0.08 µM", "result": 0.881}, {"measurement": "relative viability", "setting": "RERF-LC-KJ; first compound 0.253 µM", "result": 0.765}, {"measurement": "relative viability", "setting": "RERF-LC-KJ; first compound 0.8 µM", "result": 0.789}, {"measurement": "relative viability", "setting": "RERF-LC-KJ; first compound 2.53 µM", "result": 0.661}]}]}
